Test results taken from patent US20250034165A1, “COMPOUND CONTAINING CYCLOALKYL OR HALOALKYL” (CHIA TAI TIANQING PHARMACEUTICAL GROUP CO., LTD., priority 2021, published 2025).
pIC50: −log10 of the molar value. Where two headings read alike, the source gives them in different places.

Experiments:
[1] = tested on: BAF3-EGFR (del19/T790M/C797S) cells; assay: Inhibition of proliferation of BAF3-EGFR (Del19/T790M/C797S) cells, CCK-8; type: cell-based; conditions: 72 h, read-out: BAF3(EGFR T790M Del19 C797S) cell inhibitory activity IC50
Procedure, shortened: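 Cells seeded at 1.0×10^5 cells/mL in RPMI + 10% FBS, cultured overnight at 37° C, 5% CO2, then compound added in duplicate wells, with untreated cells as negative control. Inhibition rate calculated against negative-control and blank means. IC50 obtained from four-parameter fit of inhibition versus log concentration.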

[2] = In vitro stability in liver microsomes; type: in vitro ADME; conditions: Human liver microsome
Description: 300 μL of the final incubation system contains 30 μL of liver microsomes (protein concentration: 0.15 mg/mL), 30 μL of NADPH+MgCl2, 3 μL of the test compound (in acetonitrile), and 237 μL of PBS buffer (pH 7.4). The proportion of the organic solvent (acetonitrile) was 1%. Samples were prepared in duplicate of 0.3 mL for each species (e.g., human or mouse liver microsomes). Tubes each containing 270 μL of a mixed solution of substrate and enzyme […] were pre-incubated at 37° C. for 5 min. 30 μL of NADPH+MgCl2 was added and the mixture was mixed. 50 μL of the mixture was taken at 0 min, 15 min, 30 min, and 60 min, and 300 μL of glacial acetonitrile containing an internal standard was added to terminate the reaction.
50 μL of the incubated sample was added with 300 μL of glacial acetonitrile containing an internal standard (20 ng/mL diazepam) for precipitation. The mixture was vortexed for 5 min, and centrifuged (12,000 rpm, 4° C.) for 10 min. 75 μL of supernatant was taken and diluted with 75 μL of ultrapure water. After being homogeneously mixed, 0.5 μL of the resulting sample was injected for analysis.

[3] = In vivo pharmacokinetics in ICR mice; conditions: for MRT last: read-out: MRT(0-t); for half-life: read-out: T½ (converted); for bioavailability: 10 mg/kg
Procedure, shortened: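 ICR mice (18–20 g, 9 per group, fasted 12 h) received 10 mg/kg of compound intragastrically. Orbital blood was taken from 0 min to 24 h and EDTA-K2 plasma was prepared. Plasma was precipitated with acetonitrile containing diazepam as internal standard and analysed by LC/MS/MS.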

[4] = mouse, plasma, 1 mg/kg, IV, read-out: AUC(0-t)
[5] = mouse, plasma, PO, 10 mg/kg intragastric
[6] = mouse, plasma, PO, 10 mg/kg intragastric, read-out: AUC(0-t)
[7] = mouse, plasma, PO, 10 mg/kg intragastric, read-out: Cmax
[8] = mouse, plasma, PO, 10 mg/kg intragastric, read-out: Tmax

| Compound | pIC50 [1] | Stability in liver microsomes (residual %, T = 60 min) [2] | pIC50 ([1]; Ba/F3 EGFR-Del19/T790M/C797S) | CLz ([3]; IV) | AUC(0-inf) ([3]; mouse, plasma, 1 mg/kg, IV) | AUC(0-t) [3, 4] | MRT last ([3]; mouse, plasma, 1 mg/kg, IV) | half-life ([3]; mouse, plasma, 1 mg/kg, IV) | bioavailability ([3]; mouse, plasma, PO vs IV) | AUC(0-inf) [3, 5] | AUC(0-t) [3, 6] | Cmax [3, 7] | MRT last [3, 5] | Tmax [3, 8] | half-life [3, 5] | further results |
| --- | --- | --- | --- | --- | --- | --- | --- | --- | --- | --- | --- | --- | --- | --- | --- | --- |
| Cc1cc2cc(n1)-c1cnn(C)c1OCCC[C@@H](C1CC1)CN1/C(=N/C2=O)Nc2cc(N[C@H]3CC[C@H](N(C)C)CC3)ccc21 [Example 25] | > 9.00 | 103.07% | – | – | – | – | – | – | – | – | – | – | – | – | – | – |
| Cc1cc2cc(n1)-c1cnn(C)c1OCCC[C@@H](C1CC1)CN1/C(=N/C2=O)Nc2ccc(NCCN(C)C)cc21 [Example 28] | – | – | > 9.00 | 48.8 mL/min/kg | 341 ng·h/mL | 336 ng·h/mL | 3.96 h | 4.64 h | 27.9% | 965 ng·h/mL | 938 ng·h/mL | 74.5 ng/mL | 7.72 h | 6 h | 4.29 h | – |
| C[C@H](Nc1ccc2c(c1)N/C1=N\C(=O)c3cc(F)nc(c3)-c3cnn(C)c3OCCC[C@@H](C3CC3)CN12)C(F)(F)F [Example 9] | – | 59.54% | – | – | – | – | – | – | – | – | – | – | – | – | – | – |
| Cc1cc2cc(n1)-c1cnn(C)c1OCCC[C@@H](C1CC1)CN1/C(=N/C2=O)Nc2cc(N[C@H]3CC[C@@H](N(C)C)CC3)ccc21 [Example 26] | > 9.00 | 98.30% | – | – | – | – | – | – | – | – | – | – | – | – | – | – |

Further lines, with some results ahead:

| pIC50 [1] | Stability in liver microsomes (residual %, T = 60 min) [2] | pIC50 ([1]; Ba/F3 EGFR-Del19/T790M/C797S) | CLz ([3]; IV) | AUC(0-inf) ([3]; mouse, plasma, 1 mg/kg, IV) | AUC(0-t) [3, 4] | MRT last ([3]; mouse, plasma, 1 mg/kg, IV) | half-life ([3]; mouse, plasma, 1 mg/kg, IV) | bioavailability ([3]; mouse, plasma, PO vs IV) | AUC(0-inf) [3, 5] | AUC(0-t) [3, 6] | Cmax [3, 7] | MRT last [3, 5] | Tmax [3, 8] | half-life [3, 5] | Compound | further results |
| --- | --- | --- | --- | --- | --- | --- | --- | --- | --- | --- | --- | --- | --- | --- | --- | --- |
| – | – | > 9.00 | 19.7 mL/min/kg | 850 ng·h/mL | 845 ng·h/mL | 1.1 h | 1.65 h | 42.9% | 3640 ng·h/mL | 3620 ng·h/mL | 553 ng/mL | 5.99 h | 0.5 h | 3.06 h | Cc1cc2cc(n1)-c1cnn(C)c1OCCC[C@@H](C1CC1)CN1/C(=N/C2=O)Nc2cc(NC3(C)COC3)ccc21 [Example 29] | – |
| > 9.00 | – | – | 63.5 mL/min/kg | – | – | – | – | – | – | – | – | – | – | – | Cc1cc2cc(n1)-c1cnn(C)c1OCCC[C@@H](C1CC1)CN1/C(=N/C2=O)Nc2cc(N[C@H](C)C3COC3)ccc21 [Example 39] | AUC(0-t) ([3]; IV): 261 ng·h/mL; AUC(0-∞) ([3]; IV): 262 ng·h/mL; MRT(0-t) ([3]; IV): 0.61 h; T½ ([3]; IV): 1.74 h; F (%) ([3]; PO vs IV): 118.35%; AUC(0-t) ([3]; PO, 10 mg/kg intragastric): 3093 ng·h/mL; AUC(0-∞) ([3]; PO, 10 mg/kg intragastric): 3096 ng·h/mL; Cmax ([3]; PO, 10 mg/kg intragastric): 488 ng/mL; MRT(0-t) ([3]; PO, 10 mg/kg intragastric): 3.84 h; Tmax ([3]; PO, 10 mg/kg intragastric): 0.50 h; T½ ([3]; PO, 10 mg/kg intragastric): 2.33 h |
